The values that follow are results of earlier work, collected in patent EP0486445A2, “Polyfunctional derivatives of cyclodextrin” (Chiellini, Emo, priority 1990, dated 1992).

For data set [1] the following is noted: compared to the starting cyclodextrin.
The conditions of data set [2]: compared to the starting cyclodextrin; degree of substitution lower than 7.

For `COC[C@H]1O[C@@H]2O[C@H]3[C@H](O)[C@@H](OC)[C@@H](O[C@H]4[C@H](O)[C@@H](OC)[C@@H](O[C@H]5[C@H](O)[C@@H](OC)[C@@H](O[C@H]6[C@H](O)[C@@H](OC)[C@@H](O[C@H]7[C@H](O)[C@@H](OC)[C@@H](O[C@H]8[C@H](O)[C@@H](OC)[C@@H](O[C@H]1[C@H](O)[C@H]2OC)O[C@@H]8COC)O[C@@H]7COC)O[C@@H]6COC)O[C@@H]5COC)O[C@@H]4COC)O[C@@H]3COC` [DM-β CD, eptakis-(2,6-O-dimethyl)-β-cyclodextrin], the water solubility result in data set [1] is recorded as “much more water soluble”.

With “2-hydroxypropyl- β-cyclodextrin [HP- βCD]”, the toxicity result in data set [2] is given as “lower toxicity”. Moreover, in data set [1], the water solubility entry is recorded as “much larger water solubility”.

For hydroxyethyl-β-cyclodextrin [HE- βCD], the toxicity entry in data set [2] is recorded as “lower toxicity”. Also, the water solubility result in data set [1] is “much larger water solubility”.
